# Source: patent US20220072101A1, “HARNESSING INFLAMMATION TO TREAT NEURODEVELOPMENTAL DISORDERS” (President and Fellows of Harvard College, priority 2019, published 2022)
# “Also recorded” adds a separate entry of the source.
# Key:
# [1] = tested on: c-Fos; assay: Quantification of c-Fos+ cells in the brain after LPS administration; type: in vivo, mouse
# Method: Animals were transcardially perfused with cold PFA (4% in PBS). Brains were kept in PFA overnight at 4° C. prior to vibratome sectioning (Leica VT1000s®). Brains were cut at 50 μm thickness for cFos quantification. Brains were cut at 100 μm thickness for all other experiments.
# Prior to antibody labeling, sections were incubated in blocking solution (0.4% Triton X-100 and 2% goat serum in PBS) for 30 min. Sections were then incubated in blocking solution containing primary antibodies overnight at room temperature. Primary antibodies used were chicken anti-GFP (1:1000, Ab5450, Abcam®), rabbit anti-cFos (1:500, ABE457, Millipore®), rabbit anti-DsRed (1:1000, 632496, Clontech®). Sections were washed in wash buffer (0.4% Triton X-100 in PBS) three times before secondary antibody labeling. Sections were incubated in blocking solution containing secondary antibodies and DAPI (1:5000, D1306, Thermofisher™) for three hours at room temperature. Images of stained slices were acquired using a confocal microscope (LSM710, Carl Zeiss®) with a 10× or 20× objective lens.
# Adult male mice were sacrificed five hours after LPS injection. c-Fos+ cells were quantified using the Cell Counter plugin in Fiji^25. All cells were counted within a single coronal section of each respective brain region as defined by the Paxinos and Franklin Mouse Atlas^26. Regions quantified include mPFC (Including only PrL and IL) (AP+1.98), S1DZ (AP-0.48), S1BF (AP-0.48), M1 (AP-0.46), M2 (AP-0.46), AuD (AP-1.94), CeA (AP-1.94), and V1 (AP-3.64). Somatosensory cortex dysgranular zone (S1DZ), somatosensory cortex barrel field (S1BF), secondary motor cortex (M2), primary motor cortex (M1), secondary auditory cortex dorsal part (AuD), central amygdala (CeA), medial prefrontal cortex (mPFC), prelimbic cortex (PrL), infralimbic cortex (IL), primary visual cortex (V1).
# Adult male mice were sacrificed five hours after LPS injection. c-Fos^+ cells were quantified using the Cell Counter plugin in Fiji^28. All cells were counted within a single coronal section of each respective brain region as defined by the Paxinos and Franklin Mouse Atlas^29. Regions quantified include mPFC (PrL and IL) (AP+1.98), S1DZ (AP-0.46), S1BF (AP-0.46), M1 (AP-0.46), M2 (AP-0.46), AuD (AP-1.94), CeA (AP-1.94), and V1 (AP-3.64). Medial prefrontal cortex (mPFC), prelimbic cortex (PrL), infralimbic cortex (IL), primary somatosensory cortex dysgranular zone (S1DZ), primary somatosensory cortex barrel field (S1BF), primary motor cortex (M1), secondary motor cortex (M2), secondary auditory cortex dorsal part (AuD), central amygdala (CeA), primary visual cortex (V1). […]
# [2] = tested on: MIA offspring; assay: Three-chamber social approach assay in PBS and MIA offspring; type: in vivo, mouse
# Method: Adult male mice were assayed for sociability using a three-chamber social approach assay. The arena was constructed of white acrylic (50 cm×35 cm×30 cm). Wire cups (Spectrum Diversified®) were placed in the back left and right corner of the arena beneath water-filled 1 L bottles (Nalgene®). On Day 0, mice were habituated to the arena for 10 min. Immediately following habituation, mice were singly housed. On Day 1 (Pre), mice were placed in the center of the arena and allowed to freely explore. Following 10 min, mice were confined to the center of the arena. An inanimate object (rubber stopper) or a male conspecific were placed beneath the wire cups. Placement of the inanimate object and social target were alternated. Mice were then allowed to freely explore the arena for 10 min. Interaction time was defined as time spent in the areas circumscribing the wire cups (<2 cm). Sociability was defined as interaction time with the social target divided by total interaction time and expressed as a percentage. For experiments involving LPS injections, mice were injected with LPS ([…], i.p., L2630, Sigma) on Day 2 (Test), four hours prior to testing. […]
# Adult male mice were implanted with cannula into S1DZ and allowed to recover for >2 weeks prior to behavioral experiments. On Day 1 (Pre) mice were assayed for sociability. On Day 2 (Test), mice were anesthetized briefly using isoflurane and either vehicle or IL-17a (50 ng/side in 1 μl at a rate of 180 nl/min, 7956-ML/CF, R&D®) was administered bilaterally into S1DZ through 250 μm-projecting injector tips (PlasticsOne®). Four hours after vehicle or IL-17a administration, mice were assayed for sociability. Cannula placements were verified using histology.
# Adult male mice were assayed for sociability using a three-chamber social approach assay. The arena was constructed of white acrylic (50 cm×35 cm×30 cm). Wire cups (Spectrum Diversified®) were placed in the back left and right corner of the arena beneath water-filled 1 L bottles (Nalgene®). On day 0, mice were habituated to the arena for 10 min. Immediately following habituation, mice were singly housed. On day 1 (Pre), mice were placed in the center of the arena and allowed to freely explore. Following 10 min, mice were confined to the center of the arena. An inanimate object (rubber stopper) or a male conspecific were placed beneath the wire cups. Placement of the inanimate object and social target were alternated. Mice were then allowed to freely explore the arena for 10 min. Interaction time was defined as time spent in the areas circumscribing the wire cups (<2 cm). Sociability was defined as interaction time with the social target divided by total interaction time and expressed as a percentage. For experiments involving LPS injections, mice were injected with either saline (Veh) or LPS ([…], i.p., L2630, Sigma) on day 2 (Test), four hours prior to testing. For the experiment assaying sociability 72 hrs following LPS injection, mice used for 4 hr LPS sociability experiments were tested for sociability again at 72 hrs.
# Adult male Vgat-Cre MIA offspring were bilaterally injected with virus encoding the inhibitory DREADD receptor fused to mCherry into the vLPO. Following >3 weeks of recovery, mice were assayed on the three-chamber social approach assay outlined above. Baseline sociability was assayed on day 1 (Pre). On day 2 and day 3, mice were injected with either Saline (Veh) or CNO (1.5 mg/kg i.p., BML-NS105, Enzo Life Sciences®), two hours prior to initiation of behavior. Injection order was counterbalanced. Following behavioral experiments, post-mortem histology was used to confirm mCherry expression within the vLPO. For experiments assaying the effect of CNO and LPS injection in Vgat-Cre PBS and MIA offspring that have not undergone surgery, baseline sociability was assessed on day 1. On day 2 and 3 mice received counterbalanced injections of CNO or vehicle. On day 4, mice were injected with LPS. […]
substance,measurement,setting,value
lipopolysaccharide [LPS],number of c-Fos+ S1DZ neurons,"[1]; LPS-treated MIA offspring, five hours after LPS",indistinguishable from that of PBS offspring; also recorded: reduced to levels of control offspring
same,number of c-Fos-expressing neurons in the central amygdala (CeA),"[1]; MIA offspring, LPS",increased
same,number of c-Fos-expressing neurons in other cortical regions,"[1]; MIA offspring, LPS, S1BF, M1, M2, mPFC, AuD, V1",remained unchanged; also recorded: does not have a distinguishable effect on c-Fos expression in other cortical regions analyzed
same,number of S1DZ c-Fos+ neurons,"[1]; monogenic mutant mice (Cntnap2, Fmr1, Shank3), LPS",failed to reduce the number of S1DZ c-Fos^+ neurons in monogenic mutant mice
same,sociability deficits,"[2]; IFNγ or IL-17a knockout (KO) MIA offspring, LPS i.p., 4 hours",failed to rescue the sociability deficits in IFNγ or IL-17a knockout (KO) MIA offspring
same,LPS-induced rescue of sociability by age,"[2]; MIA mice, young (2-5 months) and aged (9-12 month), 4 hr after LPS",observed in both young (2-5 months) and aged (9-12 month) mice; also recorded: effective in aged mice
same,sociability (deficit in sociability),"[2]; MIA offspring (WT), LPS 50 μg/kg i.p., 4 hours after injection",temporarily rescued; also recorded: robustly rescued their characteristic deficits in sociability; also recorded: restored sociability; also recorded: rescues sociability deficits in MIA offspring
same,sociability,"[2]; MIA offspring deficient for IL-17Ra in the S1DZ (IL-17Ra fl/fl; EGFP:nCre), LPS i.p., 4 hours",failed to restore sociability
same,sociability rescue 72 hours following LPS,"[2]; MIA offspring, 72 hours after LPS treatment",behavioral rescue was absent 72 hours following LPS treatment; also recorded: absent 72 hours following the treatment; also recorded: transient
same,baseline sociability,"[2]; PBS (control) offspring, LPS i.p., 4 hours after injection",Neither vehicle nor LPS injection affected baseline sociability in PBS offspring; also recorded: did not affect baseline sociability in control offspring
same,sociability in MIA Vgat-Cre mice,"[2]; Vgat-Cre MIA offspring without surgery, CNO 1.5 mg/kg i.p. or LPS",showed an increase in sociability upon LPS treatment
